We go through 7 molecules from ChEMBL document CHEMBL1147029, “Probing binding requirements of NAD kinase with modified substrate (NAD) analogues” (Bioorg Med Chem Lett, 2007).

In general, inhibition refers to how much of the control response was suppressed. A higher inhibition goes with strong suppression.

For the first experiment, the target named is T1, NAD kinase (Mycobacterium tuberculosis) (UniProt P9WHV7).
T1 sequence (whole entry): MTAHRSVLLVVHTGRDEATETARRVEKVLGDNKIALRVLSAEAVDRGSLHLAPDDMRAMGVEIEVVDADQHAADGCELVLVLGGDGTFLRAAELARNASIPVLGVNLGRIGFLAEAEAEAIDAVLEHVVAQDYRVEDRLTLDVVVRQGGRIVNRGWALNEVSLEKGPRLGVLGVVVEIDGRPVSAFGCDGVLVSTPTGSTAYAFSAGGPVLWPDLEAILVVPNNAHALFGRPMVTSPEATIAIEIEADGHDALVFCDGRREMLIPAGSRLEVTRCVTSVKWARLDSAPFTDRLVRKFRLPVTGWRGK
Kind of experiment: Inhibition of Mycobacterium tuberculosis NAD kinase at 1 mM.
On to `NC(=O)c1ccc[n+]([C@@H]2O[C@H](COP(=O)(O)OP(=O)(O)OC[C@H]3O[C@@H](n4cnc5c(N)ncnc54)[C@@H](F)[C@@H]3O)[C@@H](O)[C@H]2O)c1`, for which the inhibition was below 10%.
Still for that read-out and setting: the value for `NC(=O)c1ccc[n+]([C@@H]2O[C@H](COP(=O)(O)OP(=O)(O)OC[C@H]3O[C@@H](n4cnc5c(N)ncnc54)[C@H](F)[C@@H]3O)[C@@H](O)[C@H]2O)c1` was below 10%; that for `NC(=O)c1cccc([C@@H]2O[C@H](COP(=O)(O)OP(=O)(O)OC[C@H]3O[C@@H](n4cnc5c(N)ncnc54)[C@H](O)[C@@H]3O)[C@@H](O)[C@H]2O)c1` was below 10%; that for `O=C(CBr)c1ccncc1` was 40%.
Turning to `O=C(CBr)c1cccnc1`, the inhibition is 30%.
In turn, `O=C(CBr)c1ccccn1` displayed an inhibition of 63%.
Same read-out and setting: the value for `NC(=O)c1ccc[n+]([C@@H]2O[C@H](COP(=O)(O)OP(=O)(O)OC[C@H]3O[C@@H](n4cnc5c(N)ncnc54)[C@@H](O)[C@@H]3O)[C@@H](O)[C@H]2O)c1` was 40%.

For a further experiment, the target named is T1, NAD kinase (Mycobacterium tuberculosis). The experiment in a line: Inhibition of Mycobacterium tuberculosis NAD kinase at 2 mM.
Molecule `NC(=O)c1cccc([C@@H]2O[C@H](COP(=O)(O)OP(=O)(O)OC[C@H]3O[C@@H](n4cnc5c(N)ncnc54)[C@H](O)[C@@H]3O)[C@@H](O)[C@H]2O)c1` showed an inhibition of 37%.
